{"source": "paper PMC3331898", "about": "(2012)", "molecular_target": "T1, retinoic acid receptor-related orphan receptor γ (RORγ) (Homo sapiens, UniProt P51449)", "T1 sequence (P51449 265-507 limits assumed)": "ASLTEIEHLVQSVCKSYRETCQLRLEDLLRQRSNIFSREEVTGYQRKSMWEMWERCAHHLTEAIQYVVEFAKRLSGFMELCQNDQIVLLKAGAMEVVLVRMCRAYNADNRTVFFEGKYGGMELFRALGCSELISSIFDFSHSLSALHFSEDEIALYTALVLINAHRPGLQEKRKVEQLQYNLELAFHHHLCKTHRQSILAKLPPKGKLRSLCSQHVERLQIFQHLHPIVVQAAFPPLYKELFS", "type": "binding"}
{"smiles": "C[C@H]1O[C@@H](O[C@H]2[C@@H](O)C[C@H](O[C@H]3[C@@H](O)C[C@H](O[C@H]4CC[C@@]5(C)[C@H](CC[C@@H]6[C@@H]5C[C@@H](O)[C@]5(C)[C@@H](C7=CC(=O)OC7)CC[C@]65O)C4)O[C@@H]3C)O[C@@H]2C)C[C@H](O)[C@@H]1O", "note": "[digoxin]", "values": [{"measurement": "differential HDX mass spectrometry", "value": "HDX) mass spectrometry analysis of the RORγ LBD in the presence and absence of digoxin, T1317, or SR2211"}]}
